# Assay results reported in ChEMBL document CHEMBL1201862, “PubChem BioAssay data set” (2004).
#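 Cultured in 96-well plates, cells were exposed to test compound for 48 hours across five concentrations. GI50: concentration for 50% inhibition of growth.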 The source made the active and inactive calls. Cut-off read from the data, not from the text of the source: active = GI50 up to about 1.1 µM and inactive = higher.
# Tests used:
# Test in all cases: NCI anticancer screen, dose series, 48 h
# Malme-3M = tested on: Malme-3M
# NCI-H226 = tested on: NCI-H226
# UACC-257 = tested on: UACC-257
# UACC-62 = tested on: UACC-62
# CAKI-1 = tested on: CAKI-1
# SF-539 = tested on: SF-539
# RXF 393 = tested on: RXF 393
# HOP-62 = tested on: HOP-62
# T47D = tested on: T47D
# HCT-116 = tested on: HCT-116
# SF-295 = tested on: SF-295
# BT-549 = tested on: BT-549
# Hs-578T = tested on: Hs-578T
# NCI-H522 = tested on: NCI-H522
# NCI-H460 = tested on: NCI-H460
# 786-0 = tested on: 786-0
# MOLT-4 = tested on: MOLT-4
# MDA-N = tested on: MDA-N
# K562 = tested on: K562
# NCI/ADR-RES = tested on: NCI/ADR-RES
# A498 = tested on: A498
# HCT-15 = tested on: HCT-15
# SK-MEL-5 = tested on: SK-MEL-5
# SW-620 = tested on: SW-620
# SN12C = tested on: SN12C
# TK-10 = tested on: TK-10
# SF-268 = tested on: SF-268
# SR = tested on: SR
# OVCAR-3 = tested on: OVCAR-3
# KM12 = tested on: KM12
# HOP-92 = tested on: HOP-92
# CCRF-CEM = tested on: CCRF-CEM
# ACHN = tested on: ACHN
# COLO 205 = tested on: COLO 205
# SNB-19 = tested on: SNB-19
# OVCAR-4 = tested on: OVCAR-4
# NCI-H23 = tested on: NCI-H23
# RPMI-8226 = tested on: RPMI-8226
# IGROV-1 = tested on: IGROV-1
# MDA-MB-231 = tested on: MDA-MB-231
# SK-MEL-2 = tested on: SK-MEL-2
# U-251 = tested on: U-251
# HCC 2998 = tested on: HCC 2998
# PC-3 = tested on: PC-3
# OVCAR-8 = tested on: OVCAR-8
# DU-145 = tested on: DU-145
# M14 = tested on: M14
# LOX IMVI = tested on: LOX IMVI
# EKVX = tested on: EKVX
# UO-31 = tested on: UO-31
# OVCAR-5 = tested on: OVCAR-5
# HT-29 = tested on: HT-29
# SK-OV-3 = tested on: SK-OV-3
# A549 = tested on: A549
# HL-60 = tested on: HL-60
# MCF7 = tested on: MCF7
# MDA-MB-435 = tested on: MDA-MB-435
# SK-MEL-28 = tested on: SK-MEL-28
# SNB-75 = tested on: SNB-75
structure (smiles),measurement,setting,value
CCC(C#N)NC(=O)NC(C#N)CC (stereo not given),GI50,Malme-3M,> 100 µM (inactive)
same,GI50,NCI-H226,> 100 µM (inactive)
same,GI50,UACC-257,> 100 µM (inactive)
same,GI50,UACC-62,> 100 µM (inactive)
same,GI50,CAKI-1,> 100 µM (inactive)
same,GI50,SF-539,> 100 µM (inactive)
same,GI50,RXF 393,> 100 µM (inactive)
same,GI50,HOP-62,> 100 µM (inactive)
same,GI50,T47D,> 100 µM (inactive)
same,GI50,HCT-116,> 100 µM (inactive)
same,GI50,SF-295,> 100 µM (inactive)
same,GI50,BT-549,> 100 µM (inactive)
same,GI50,Hs-578T,> 100 µM (inactive)
same,GI50,NCI-H522,> 100 µM (inactive)
same,GI50,NCI-H460,> 100 µM (inactive)
same,GI50,786-0,> 100 µM (inactive)
same,GI50,MOLT-4,28.5 µM (inactive)
same,GI50,MDA-N,> 100 µM (inactive)
same,GI50,K562,50.9 µM (inactive)
same,GI50,NCI/ADR-RES,> 100 µM (inactive)
same,GI50,A498,> 100 µM (inactive)
same,GI50,HCT-15,> 100 µM
same,GI50,SK-MEL-5,> 100 µM (inactive)
same,GI50,SW-620,> 100 µM (inactive)
same,GI50,SN12C,> 100 µM (inactive)
same,GI50,TK-10,> 100 µM (inactive)
same,GI50,SF-268,> 100 µM (inactive)
same,GI50,SR,> 100 µM (inactive)
same,GI50,OVCAR-3,> 100 µM (inactive)
same,GI50,KM12,> 100 µM (inactive)
same,GI50,HOP-92,31.7 µM (inactive)
same,GI50,CCRF-CEM,> 100 µM (inactive)
same,GI50,ACHN,> 100 µM (inactive)
same,GI50,COLO 205,> 100 µM (inactive)
same,GI50,SNB-19,> 100 µM (inactive)
same,GI50,OVCAR-4,33.6 µM (inactive)
same,GI50,NCI-H23,> 100 µM (inactive)
same,GI50,RPMI-8226,> 100 µM (inactive)
same,GI50,IGROV-1,> 100 µM (inactive)
same,GI50,MDA-MB-231,> 100 µM (inactive)
same,GI50,SK-MEL-2,> 100 µM (inactive)
same,GI50,U-251,> 100 µM (inactive)
same,GI50,HCC 2998,> 100 µM (inactive)
same,GI50,PC-3,91.8 µM (inactive)
same,GI50,OVCAR-8,> 100 µM (inactive)
same,GI50,DU-145,> 100 µM (inactive)
same,GI50,M14,> 100 µM (inactive)
same,GI50,LOX IMVI,> 100 µM (inactive)
same,GI50,EKVX,> 100 µM (inactive)
same,GI50,UO-31,58.5 µM (inactive)
same,GI50,OVCAR-5,> 100 µM (inactive)
same,GI50,HT-29,> 100 µM (inactive)
same,GI50,SK-OV-3,> 100 µM (inactive)
same,GI50,A549,77.3 µM (inactive)
same,GI50,HL-60,> 100 µM (inactive)
same,GI50,MCF7,> 100 µM (inactive)
same,GI50,MDA-MB-435,> 100 µM (inactive)
CO/N=C\c1cc(O)c(O)c(/C=N/OC)c1,GI50,Malme-3M,52.7 µM (inactive)
same,GI50,NCI-H226,30.3 µM (inactive)
same,GI50,UACC-257,> 100 µM (inactive)
same,GI50,UACC-62,38.8 µM (inactive)
same,GI50,CAKI-1,23.3 µM (inactive)
same,GI50,SF-539,27 µM (inactive)
same,GI50,RXF 393,51.2 µM (inactive)
same,GI50,HOP-62,51.4 µM (inactive)
same,GI50,T47D,26.1 µM (inactive)
same,GI50,HCT-116,23.8 µM (inactive)
same,GI50,SF-295,48 µM (inactive)
same,GI50,BT-549,> 100 µM (inactive)
same,GI50,Hs-578T,12.6 µM (inactive)
same,GI50,NCI-H522,14.1 µM (inactive)
same,GI50,NCI-H460,23.1 µM (inactive)
same,GI50,MOLT-4,8.17 µM (inactive)
same,GI50,MDA-N,64.4 µM (inactive)
same,GI50,K562,29.8 µM (inactive)
same,GI50,NCI/ADR-RES,30.6 µM (inactive)
same,GI50,A498,49.1 µM (inactive)
same,GI50,HCT-15,33.3 µM
same,GI50,SK-MEL-5,55.7 µM (inactive)
same,GI50,SW-620,36.6 µM (inactive)
same,GI50,SN12C,12.8 µM (inactive)
same,GI50,TK-10,86.7 µM (inactive)
same,GI50,SF-268,10.9 µM (inactive)
same,GI50,SR,5.83 µM (inactive)
same,GI50,OVCAR-3,4.82 µM (inactive)
same,GI50,KM12,38.8 µM (inactive)
same,GI50,HOP-92,61.1 µM (inactive)
same,GI50,CCRF-CEM,16 µM (inactive)
same,GI50,ACHN,29.6 µM (inactive)
same,GI50,SK-MEL-28,> 100 µM (inactive)
same,GI50,COLO 205,37.9 µM (inactive)
same,GI50,SNB-19,59.6 µM (inactive)
same,GI50,OVCAR-4,24.9 µM (inactive)
same,GI50,NCI-H23,26.9 µM (inactive)
same,GI50,RPMI-8226,12.5 µM (inactive)
same,GI50,IGROV-1,27.4 µM (inactive)
same,GI50,MDA-MB-231,36.1 µM (inactive)
same,GI50,SK-MEL-2,> 100 µM (inactive)
same,GI50,U-251,34.1 µM (inactive)
same,GI50,HCC 2998,32.8 µM (inactive)
same,GI50,PC-3,33.7 µM (inactive)
same,GI50,OVCAR-8,23.4 µM (inactive)
same,GI50,DU-145,39.5 µM (inactive)
same,GI50,M14,33.3 µM (inactive)
same,GI50,LOX IMVI,41.3 µM (inactive)
same,GI50,EKVX,47.4 µM (inactive)
same,GI50,UO-31,11.3 µM (inactive)
same,GI50,OVCAR-5,> 100 µM (inactive)
same,GI50,HT-29,40.5 µM (inactive)
same,GI50,SK-OV-3,29.1 µM (inactive)
same,GI50,SNB-75,87.5 µM (inactive)
same,GI50,A549,26 µM (inactive)
same,GI50,HL-60,3.48 µM (inactive)
same,GI50,MCF7,29.3 µM (inactive)
same,GI50,MDA-MB-435,50.5 µM (inactive)
